Source: PubChem BioAssay (NCI)
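Briefly, cells in 96-well plates were exposed to five compound concentrations for 48 h, and endpoints were estimated by linear interpolation. Abbreviation: GI50, concentration required for 50% inhibition of growth. TGI denotes the concentration required for complete inhibition of growth.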 Where a SMILES comes first, the peptide text is derived from it. [ ]: non-standard residue; d: D form. Ava = NCCCCC(=O)O; Mpa = O=C(O)CCS

Experiments:
Experiment in all cases: DTP human tumour cell line panel, 48 h
HT29 colon = system: HT29 colon
K-562 leukemia = system: K-562 leukemia
KM12 colon = system: KM12 colon
MOLT-4 leukemia = system: MOLT-4 leukemia
NCI-H460 lung = system: NCI-H460 lung
NCI-H522 lung = system: NCI-H522 lung
SN12C renal = system: SN12C renal
SW-620 colon = system: SW-620 colon
TK-10 renal = system: TK-10 renal
UACC-257 melanoma = system: UACC-257 melanoma

SMILES	TGI (HT29 colon) [µM]	TGI (K-562 leukemia) [µM]	TGI (KM12 colon) [µM]	TGI (MOLT-4 leukemia) [µM]	TGI (NCI-H460 lung) [µM]	TGI (NCI-H522 lung) [µM]	TGI (SN12C renal) [µM]	TGI (SW-620 colon) [µM]	TGI (TK-10 renal) [µM]	TGI (UACC-257 melanoma) [µM]	GI50 (KM12 colon) [µM]	GI50 (K-562 leukemia) [µM]	GI50 (MOLT-4 leukemia) [µM]	GI50 (NCI-H460 lung) [µM]	GI50 (NCI-H522 lung) [µM]	GI50 (SN12C renal) [µM]	GI50 (SW-620 colon) [µM]
CC1=NNC(=O)C1C1(C(=O)O)CC(c2c[nH]c3ccccc23)=NC(=S)N1 (configuration not stated)	78.9	73.9	36.9	52.7	50.1	62.6	> 100	> 100	> 100	> 100	–	–	–	–	–	–	–
COc1ccc(N2C(=O)C3ON(Cc4ccc(CC(N)=O)cc4)C(c4c5ccccc5c(C)c5ccccc45)C3C2=O)cc1 (configuration not stated)	35	38	> 100	6.41	30.8	> 100	> 100	> 100	47.8	46.5	–	–	–	–	–	–	–
O=C(COc1cc(=O)oc2ccccc12)c1ccccc1	45.7	> 100	> 100	> 100	> 100	89.9	> 100	> 100	> 100	> 100	–	–	–	–	–	–	–
Nc1cc(CO)cc(Nc2c3ccccc3nc3ccccc23)c1	28.8	> 100	29.8	> 100	> 100	18.9	35.9	26	30.1	28.5	–	–	–	–	–	–	–
Cc1cc2ncn(CC(=O)O)c2cc1C	> 100	> 100	> 100	> 100	> 100	> 100	> 100	> 100	> 100	> 100	–	–	–	–	–	–	–
COc1ccc(-c2cc(=O)c3c(O)c(O)c(OC)cc3o2)cc1O	> 100	> 100	> 100	> 100	> 100	> 100	> 100	> 100	> 100	> 100	–	–	–	–	–	–	–
O=C(CC(C(=O)c1ccsc1)c1cccs1)c1ccccc1 (configuration not stated)	> 100	> 100	> 100	> 100	> 100	> 100	> 100	> 100	> 100	> 100	–	–	–	–	–	–	–
COc1c(C(=O)/C(=N/Nc2ccc(C(=O)O)cc2)C(C)=O)c(O)cc2occc12	> 100	> 100	> 100	> 100	> 100	> 100	> 100	> 100	> 100	> 100	–	–	–	–	–	–	–
CC(C#N)(NO)C(C)(C#N)NO (configuration not stated)	> 100	> 100	> 100	> 100	> 100	> 100	> 100	> 100	> 100	> 100	–	–	–	–	–	–	–
CS(=O)(=O)OCCN(CCOS(C)(=O)=O)c1ccc(C=Nc2ccc(-c3csc(Cc4ccccc4)n3)cc2)c(Cl)c1	64.5	76.9	> 63.9	> 87.9	43.4	> 76	> 100	> 100	> 100	17.8	–	–	–	–	–	–	–
COc1cc2c(cc1OC)C(CCN)=NCC2	41.3	43.3	40.2	43	> 100	10.3	35.1	17.1	22.8	32.9	–	–	–	–	–	–	–
O=C(NC(=S)Nc1ccc(Br)cc1)c1ccc2c(c1)Sc1ccccc1O2	> 100	> 100	> 100	> 100	> 100	> 100	> 100	> 100	> 100	> 100	–	–	–	–	–	–	–
COc1ccccc1/C=C1\C(=O)N(C(=O)Cc2ccccc2)N=C1C	> 100	> 100	> 100	> 100	> 100	> 100	> 100	> 100	> 100	> 100	–	–	–	–	–	–	–
Cc1ccc(C(=O)Nc2ccc(S(=O)(=O)O)c3cc(S(=O)(=O)O)cc(S(=O)(=O)O)c23)cc1NC(=O)c1cccc(NC(=O)Nc2cccc(C(=O)Nc3cc(C(=O)Nc4ccc(S(=O)(=O)O)c5cc(S(=O)(=O)O)cc(S(=O)(=O)O)c45)ccc3C)c2)c1	> 100	> 100	> 100	> 100	> 100	> 100	> 100	> 100	> 89.7	> 100	–	–	–	–	–	–	–
O=C(Nc1ccccc1C(=O)NCc1ccccc1)/C(=C/c1ccccc1O)NC(=O)c1ccccc1	> 100	> 100	> 100	> 100	> 100	> 100	> 100	> 100	> 100	> 100	–	–	–	–	–	–	–
CCO/N=C\c1ccc2oc(-c3ccccc3)cc(=O)c2c1	5.34	> 100	11.1	19.9	4.19	0.265	11.5	> 100	34	66	–	–	–	–	–	–	–

SMILES	TGI (HT29 colon) [µM]	TGI (K-562 leukemia) [µM]	TGI (KM12 colon) [µM]	TGI (MOLT-4 leukemia) [µM]	TGI (NCI-H460 lung) [µM]	TGI (NCI-H522 lung) [µM]	TGI (SN12C renal) [µM]	TGI (SW-620 colon) [µM]	TGI (TK-10 renal) [µM]	TGI (UACC-257 melanoma) [µM]	GI50 (KM12 colon) [µM]	GI50 (K-562 leukemia) [µM]	GI50 (MOLT-4 leukemia) [µM]	GI50 (NCI-H460 lung) [µM]	GI50 (NCI-H522 lung) [µM]	GI50 (SN12C renal) [µM]	GI50 (SW-620 colon) [µM]
COc1ccc(-c2c(C#N)c(N)[nH]c(=S)c2C#N)cc1	> 100	> 100	> 100	> 100	> 100	63	84.3	> 100	> 100	> 100	–	–	–	–	–	–	–
O=[N+]([O-])c1ccc2c(c1)nc1n2C(c2c(F)cccc2F)SC1 (configuration not stated)	> 100	> 100	> 100	> 100	> 100	> 100	> 100	> 100	> 100	> 100	–	–	–	–	–	–	–
CCC1(O)C(=O)OCc2c1cc1n(c2=O)Cc2cc3cc4c(cc3nc2-1)OCO4 (configuration not stated)	19.9	> 100	5.69	0.178	0.0156	0.383	4.1	18.7	37.3	0.822	0.0978	–	–	–	–	–	–
CN1C/C(=C\c2cccs2)C2=NN(c3ccccc3)C(c3cccs3)C2C1 (configuration not stated)	22.4	> 100	> 100	> 100	> 100	> 100	> 100	> 100	> 100	> 100	–	–	–	–	–	–	–
ClCCCN1CCN(CCCl)CC1	> 818	> 965	> 1000	110	356	356	626	> 873	> 903	> 1000	–	82.9	1.39	7.97	54.9	8.8	83.7
COc1ccc2c(c1)/C(=C\c1c(Cl)nc3n1CCS3)C(=O)N2	16.3	> 100	23.2	> 100	18.9	24.4	53.3	> 100	28.1	25.8	–	–	–	–	–	–	–
CCOC(=O)NC(Nc1ccc(F)cc1F)(C(F)(F)F)C(F)(F)F	> 100	> 100	> 100	> 100	> 100	> 100	> 100	> 100	> 100	> 100	–	–	–	–	–	–	–
COC(=O)C1(Cc2ccc3c(c2)CCC3)Cc2ccc3c(c2C1=O)CCC3 (configuration not stated)	> 34.8	> 100	> 100	36.5	> 63.9	18.8	> 100	> 71.1	> 90.1	> 100	–	–	–	–	–	–	–
O=C(CCCc1cccc2[nH]c3c(c12)CN(Cc1ccccc1)CC3)c1ccc(F)cc1	> 45.8	> 100	> 100	> 100	> 100	> 91.1	> 100	> 100	> 100	> 100	–	–	–	–	–	–	–
COc1ccc(SCc2cc(OC)ccc2OC)cc1	> 100	> 51.3	> 100	> 91.2	> 100	> 100	> 100	> 100	> 100	> 100	–	–	–	–	–	–	–
Nc1cc(C2CCCc3c2[nH]c2ccccc32)ccc1O (configuration not stated)	> 100	> 100	> 100	91.2	> 100	> 100	> 100	> 100	> 100	> 100	–	–	–	–	–	–	–
CC(NC(=O)CCS)C(=O)NC(C)C(=O)NC(Cc1c[nH]c2ccccc12)C(=O)NC(Cc1c[nH]cn1)C(=O)NC(CO)C(=O)NC(Cc1c[nH]c2ccccc12)C(=O)NCCCCC(=O)NC(C)C(=O)NC(CCC(N)=O)C(=O)NC(CCCCN)C(=O)NC(C)C(=O)NC(CCCNC(=N)N)C(=O)NC(CCCCN)C(N)=O (configuration not stated) ([Mpa]AAWHSW[Ava]AQKARK-NH2; configuration not given here)	> 100	99.4	88.7	> 100	> 100	> 100	> 100	> 100	> 100	63.1	–	–	–	–	–	–	–
COc1cc(/C=C2\C(=O)N(c3cccc(NC(C)=O)c3)C(c3ccccc3)S2(=O)=O)cc(OC)c1OC (configuration not stated)	> 100	> 100	> 100	86.3	> 100	> 100	> 100	> 100	> 100	> 100	–	–	–	–	–	–	–
CC1OC(NCCNCCNC2OC(C)C(O)C(O)C2O)C(O)C(O)C1O (configuration not stated)	> 100	> 100	> 100	> 100	> 100	> 100	> 100	> 100	> 100	> 100	–	–	–	–	–	–	–
CC(O)C(CO)NC(=O)C1CSSCC(NC(=O)C(N)Cc2ccccc2)C(=O)NC(Cc2ccccc2)C(=O)NC(Cc2c[nH]c3ccccc23)C(=O)NC(CCCCN)C(=O)NC(C(C)O)C(=O)N1 (configuration not stated)	> 100	> 100	> 100	> 100	> 100	> 100	> 100	> 100	> 100	> 100	–	–	–	–	–	–	–
O=C1C=C(NCCc2ccc(O)c([N+](=O)[O-])c2)C(=O)c2[nH]cnc21	> 100	42.7	> 100	38.2	69.6	57.8	> 100	> 100	> 100	38.7	–	–	–	–	–	–	–
